Reference: patent US20250041226A1, “MULTIPARTICULATE ALBACONAZOLE COMPOSITION” (PALAU PHARMA, S.L.U., priority 2021, published 2025)

Assays:
[1] = Related substances (total impurities) by HPLC in stability experiments; format: physicochemical; conditions: within the coating
Description: • Analytical procedure: Ph. Eur. <2.2.29>; HPLC
• Column: Luna C18 (2) 5 μm, 150×4.6 mm. • Mobile phase: Acetonitrile/0.5% phosphoric acid as following:
• 0.5% phosphoric acid: using a pipette, transfer 5 ml of o-phosphoric acid (85%) to a 1,000 ml calibrated flask and dilute to volume with water HPLC grade. • Flow: 1.0 ml/min. • Wavelength detection: 210 nm. • Injection volume: 20 μl. • Column temperature: 30° C. • Retention time of Albaconazole: approx. 20.0 min. • Chromatogram time: 29 min.
Test solution: Grind the content (pellets) of, at least, 5 capsules, from the obtained powder weight, accurately, about 150 mg and transfer to a 25 ml calibrated flask. Add about 20 ml of acetonitrile HPLC grade and apply the ultrasound during approximately 10 min. Allow to cool and dilute to volume with acetonitrile HPLC grade. Filter through a 0.45 μm Millex HV-PVDF filter or similar, discard the first drops of filtrate (perform in triplicate).
Individual related substances that are lower than the quantification limit (Quantification limit: QL=0.015%), and any peak corresponding to placebo have not been quantified. The compositions of the invention may be used in the treatment of fungal infections in a patient by orally administering said compositions to said patient.

[2] = Dissolution test (Ph. Eur. 2.9.3, paddle apparatus, 0.1 N HCl, 45 min); format: physicochemical; conditions: HCl 0.1N, 45 minutes where stated
Description: • Analytical procedure: Ph. Eur. <2.9.3>; UVNis
• Paddle apparatus. • Stirring speed: 100 rpm. • Dissolution medium: 0.1 N Hydrochloric acid.
0.1 N Hydrochloric acid: using a pipette, transfer 8.5 ml of hydrochloric acid to a 1,000 ml calibrated flask and dilute to volume with water HPLC grade. • Volume of dissolution medium: 900 ml. • Dissolution time: 45 min. • Temperature of dissolution medium: 37±0.5° C.

SMILES | Impurities during stability experiments (in words) [1] | Dissolution behaviour (observation in words) [2]
C[C@@H](n1cnc2cc(Cl)ccc2c1=O)[C@](O)(Cn1cncn1)c1ccc(F)cc1F [Albaconazole form Ill, Albaconazole] | low impurities during stability experiments | excellent dissolution results
C[C@@H](n1cnc2cc(Cl)ccc2c1=O)[C@](O)(Cn1cncn1)c1ccc(F)cc1F [crystalline Albaconazole, Albaconazole] | – | dissolves faster at early times than amorphous Albaconazole
